Each structure is given as a SMILES string.

The source of these data is paper PMC6002545, “Deciphering the late steps of rifamycin biosynthesis” (Nature Communications, 2018).

For this experiment, the target named is T1, Rif16 (Amycolatopsis mediterranei, UniProt A0A0H3CVZ6).
T1 construct: gene AMED_0653; N-terminally His6-tagged Rif16 (rif16 from A. mediterranei S699)
Description: Type I spectral substrate binding titration; co-crystal structure at […] Å.

T1 sequence (A0A0H3CVZ6 entry or part of it): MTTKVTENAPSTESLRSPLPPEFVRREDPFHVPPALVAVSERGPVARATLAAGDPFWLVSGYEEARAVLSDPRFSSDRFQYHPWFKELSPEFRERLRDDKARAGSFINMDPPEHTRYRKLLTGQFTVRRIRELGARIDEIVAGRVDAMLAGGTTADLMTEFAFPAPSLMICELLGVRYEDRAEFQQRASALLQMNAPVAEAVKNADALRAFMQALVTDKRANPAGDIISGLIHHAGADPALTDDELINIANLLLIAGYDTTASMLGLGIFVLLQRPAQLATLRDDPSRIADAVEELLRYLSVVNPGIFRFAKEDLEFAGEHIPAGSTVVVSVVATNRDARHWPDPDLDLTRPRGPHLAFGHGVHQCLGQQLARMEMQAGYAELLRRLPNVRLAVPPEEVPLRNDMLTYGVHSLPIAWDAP

Compound `CO[C@H]1/C=C/O[C@@]2(C)Oc3c(C)c(O)c4c(O)c(cc(OC(=O)CO)c4c3C2=O)NC(=O)/C(C)=C/C=C/[C@H](C)[C@H](O)[C@@H](C)[C@@H](O)[C@@H](C)[C@H](OC(C)=O)[C@@H]1C` [R-L, rifamycin L] had a Kd of 1300 ± 100 nM.

The term Kd denotes the equilibrium constant for the complex coming apart. A lower Kd goes with a tighter complex.
